{"source": "patent US12527767B2", "about": "(priority 2019, dated 2026)", "origin": "cited, not measured here", "system": "corneal neovascularization", "details": "rabbit, in vivo"}
{"compound": "O=C1O[C@H]([C@@H](O)CO)C(O)=C1O", "note": "[ascorbic acid]", "values": [{"measurement": "corneal neovascularization", "value": "attenuated corneal neovascularization"}]}
